Laboratory results: US20140030341A1, “POLYMERS AND METHODS FOR THE TREATMENT OF PAIN” (RUTGERS, THE STATE UNIVERSITY OF NEW JERSEY, priority 2011, published 2014)

Assays:
[1] = 37° C., pH 7.4 buffer, HPLC
Experimental: The system was connected to a Dell computer running Empire software. Samples were filtered using 0.22 μm poly(vinylidine fluoride) syringe filters (Fisher). […] Mobile phase used was composed of 50 mM KH2PO4, 2.5 mM sodium dodecyl sulfate, 25% acetonitrile, 75% water at pH 3.
In vitro degradation studies. Diacid 3 (5.0 mg, triplicate) was placed into scintillation vials and 20.00 mL phosphate buffered saline (PBS) pH 7.4 added. Samples were incubated at 37° C. under constant shaking (60 rpm) in an Excella E25 Incubator Shaker (New Brunswick Scientific). PBS (1.00 mL) was removed at predetermined time points (2 h, 5 h, 10 h, and daily starting on day 1) and replaced with fresh PBS (1.00 mL). The pH was checked using an Accumet® Research AR15 pH meter (Fisher Scientific) and adjusted using 0.50 M NaOH when needed. Samples were immediately analyzed by HPLC using the conditions outlined above.
Samples were incubated at 37° C. under constant shaking (60 rpm) in an Excella E25 Incubator Shaker (New Brunswick Scientific). PBS (20.00 mL) was removed daily and replaced with fresh PBS. Samples were analyzed by HPLC.

[2] = system: 3T3 fibroblasts cells (NIH 3T3 fibroblast cell line)
Experimental: Cytocompatibility was evaluated by culturing 3T3 fibroblasts cells (NIH 3T3 fibroblast cell line) in diacid- and/or polymer-containing medium at concentrations of 0.10 and 0.01 mg/mL Cell culture medium consisted of Dulbecco's modified Eagle's medium (DMEM), 10 vol. % fetal bovine serum (Atlanta Biologicals, Lawrenceville, Ga.), 1% 1-glutamate, and 1% penicillin/streptomycin. Fibroblasts were seeded at a density of 2,000 cells/well in 96 well plates containing 150 μL of culture medium. The positive control consisted of fibroblasts with cell culture media only and the negative control consisted of fibroblasts with cell culture media and 5% 200-proof ethanol (PHARMCO-AAPER). […] Cell viability was determined by using Calcein AM and ethidium homodimer-1 staining (Molecular Probes) according to the manufacturer's protocol and the results normalized to the positive control. […] Experiments were performed in quadruplicates.

## CN1CC[C@]23c4c5ccc(OC(=O)CCCC(=O)O)c4O[C@H]2[C@@H](OC(=O)CCCC(=O)O)C=C[C@H]3[C@H]1C5 [Diacid 3]
[1]
  hydrolytic degradation pathway: hydrolyzes into a monoacid
[2]; 0.10 mg/mL, 95% confidence level
  cell viability vs positive control (FIG. 7A): no statistical differences
[2]; 0.10 and 0.01 mg/mL
  cytotoxicity towards fibroblasts: non-cytotoxic
[2]; 0.10 and 0.01 mg/mL, 24, 48 and 72 h, 95% confidence level
  cell viability vs positive control (statistical analysis): no significant differences
